pIC50: −log10 of the molar value.
Target: T1, human URAT1 (Homo sapiens, UniProt Q96S37)
T1 construct: Full-length cDNA of human URAT1 (hURAT1)
T1 sequence (Q96S37 1-553): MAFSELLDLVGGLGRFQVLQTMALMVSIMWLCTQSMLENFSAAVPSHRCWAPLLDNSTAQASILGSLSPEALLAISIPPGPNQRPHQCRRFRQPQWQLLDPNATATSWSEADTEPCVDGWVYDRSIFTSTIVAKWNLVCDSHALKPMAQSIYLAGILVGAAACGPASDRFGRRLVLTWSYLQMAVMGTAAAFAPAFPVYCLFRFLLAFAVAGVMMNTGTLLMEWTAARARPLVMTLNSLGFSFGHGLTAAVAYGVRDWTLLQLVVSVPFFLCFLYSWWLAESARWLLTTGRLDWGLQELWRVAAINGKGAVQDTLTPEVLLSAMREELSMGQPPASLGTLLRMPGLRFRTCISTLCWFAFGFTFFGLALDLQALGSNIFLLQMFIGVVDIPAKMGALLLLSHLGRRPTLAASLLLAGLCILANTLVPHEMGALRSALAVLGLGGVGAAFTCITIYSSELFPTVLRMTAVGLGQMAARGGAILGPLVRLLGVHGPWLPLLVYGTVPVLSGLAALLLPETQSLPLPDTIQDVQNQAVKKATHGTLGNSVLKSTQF
Test: Test for inhibition of uric acid transport using human URAT1-expressing cells;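 also: three stars up to 0.2 µM two stars 0.2-2 µM one star 2-20 µM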
Assay type: cell-based
Conditions: HEK 293 cells expressing human URAT1, 14C-labeled uric acid 25 μM, uptake 37° C. for 5 min; for pIC50: read-out: Inhibitory Activity (IC50 of uric acid transport inhibition)
Procedure, shortened: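 IC50 values reflect inhibition of ¹⁴C-uric acid uptake (25 μM final, 5 min, 37 °C) by compound. Cells were HEK293 stably expressing full-length human URAT1, preincubated in Na-gluconate-substituted HBSS. Radioactivity in lysates was expressed relative to DMSO control as 100%.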

Structure (SMILES)	Inhibitory Activity (IC50 of uric acid transport inhibition)	pIC50
Cc1cncc(-c2nc(C)c(C(=O)O)n2Cc2sc(Cl)cc2Cl)c1 [Compound A230, 1-((2,4-dichlorothiophen-5-yl)methyl)-4-methyl-2-(5-methylpyridin-3-yl)-1H-imidazole-5-carboxylic acid]	* *	
Cc1cncc(-c2nc(C)c(C(=O)O)n2Cc2cc(C)ccc2Cl)c1 [Compound A231, 1-(2-chloro-5-methylbenzyl)-4-methyl-2-(5-methylpyridin-3-yl)-1H-imidazole-5-carboxylic acid]	* * *	
Cc1nc(-c2cncc(F)c2)n(Cc2cccc3ccsc23)c1C(=O)O [Compound A234, 1-(benzo[b]thiophen-7-ylmethyl)-2-(5-fluoropyridin-3-yl)-4-methyl-1H-imidazole-5-carboxylic acid]	* *	
CC(C)c1nc(-c2cncc(Cl)c2)n(Cc2cccc3ccsc23)c1C(=O)O [Compound A235, 1-(benzo[b]thiophen-7-ylmethyl)-2-(5-chloropyridin-3-yl)-4-isopropyl-1H-imidazole-5-carboxylic acid]	* * *	
O=C(O)c1c(C2CC2)nc(-c2cncc(Cl)c2)n1Cc1cccc2ccsc12 [Compound A236, 1-(benzo[b]thiophen-7-ylmethyl)-2-(5-chloropyridin-3-yl)-4-cyclopropyl-1H-imidazole-5-carboxylic acid]	* * *	
Clc1cncc(-c2ncc(-c3nnn[nH]3)n2Cc2cc(Cl)ccc2Cl)c1 [Compound A237, 3-chloro-5-(1-(2,5-dichlorobenzyl)-5-(1H-tetrazol-5-yl)-1H-imidazol-2-yl)pyridine]	* * *	
COc1cccc(-c2nc(C)c(C(=O)O)n2Cc2cccc3ccccc23)n1 [Compound A240, 2-(6-methoxypyridin-2-yl)-4-methyl-1-(naphthalen-1-ylmethyl)-1H-imidazole-5-carboxylic acid]	* *	
Cc1ccc2ccccc2c1Cn1c(-c2ccccn2)nc(C)c1C(=O)O [Compound A241]		4.70 to 5.70
Cc1nc(-c2ccnc(Cl)c2)n(Cc2cccc3ccccc23)c1C(=O)O [Compound A242]		4.70 to 5.70
Cc1nc(-c2ccccn2)n(Cc2cccc3ccccc23)c1C(=O)O [Compound A243]		4.70 to 5.70
Cc1nc(Oc2cncc(Cl)c2)n(Cc2cc(Cl)ccc2Cl)c1C(=O)O [Compound A250, 2-((5-chloropyridin-3-yl)oxy)-1-(2,5-dichlorobenzyl)-4-methyl-1H-imidazole-5-carboxylic acid]	* * *	
Cc1nc(Oc2cncc(Br)c2)n(Cc2cc(Cl)ccc2Cl)c1C(=O)O [Compound A251, 2-((5-bromopyridin-3-yl)oxy)-1-(2,5-dichlorobenzyl)-4-methyl-1H-imidazole-5-carboxylic acid]	* * *	
Cc1nc(Oc2cccnc2Cl)n(Cc2cc(Cl)ccc2Cl)c1C(=O)O [Compound A253, 2-((2-chloropyridin-3-yl)oxy)-1-(2,5-dichlorobenzyl)-4-methyl-1H-imidazole-5-carboxylic acid]	* * *	
Cc1nc(Oc2cccnc2Br)n(Cc2cc(Cl)ccc2Cl)c1C(=O)O [Compound A254, 2-((2-bromopyridin-3-yl)oxy)-1-(2,5-dichlorobenzyl)-4-methyl-1H-imidazole-5-carboxylic acid]	* * *	
Cc1cncc(Oc2nc(C)c(C(=O)O)n2Cc2cc(Cl)ccc2Cl)c1 [Compound A255, 1-(2,5-dichlorobenzyl)-4-methyl-2-((5-methylpyridin-3-yl)oxy)-1H-imidazole-5-carboxylic acid]	* * *	
O=C(O)/C=C/c1cnc(-c2cccnc2)n1Cc1cccc2ccccc12 [Compound A259]		4.70 to 5.70
O=C(O)/C=C/c1cnc(-c2cccnc2)n1Cc1cc(Cl)ccc1Cl [Compound A260]		4.70 to 5.70
CC(C)(Sc1cnc(-c2cccnc2)n1Cc1cc(Cl)ccc1Cl)C(=O)O [Compound A261]		4.70 to 5.70

The next lines start with the values.

Inhibitory Activity (IC50 of uric acid transport inhibition)	pIC50	Structure (SMILES)
* * *		Cc1ccc(Cl)c(Cn2c(-c3cncc(Cl)c3)nc(C)c2C(=O)O)c1 [Compound A232, 1-(2-chloro-5-methylbenzyl)-2-(5-chloropyridin-3-yl)-4-methyl-1H-imidazole-5-carboxylic acid]
* *		Cc1ccc(C)c(Cn2c(-c3ccncc3)nc(C)c2C(=O)O)c1 [Compound A238, 1-(2,5-dimethylbenzyl)-4-methyl-2-(pyridin-4-yl)-1H-imidazole-5-carboxylic acid]
	4.70 to 5.70	Cc1nc(-c2ccncc2)n(Cc2cccc3ccccc23)c1C(=O)O [Compound A239]
* *		Cc1nc(-c2ccncc2)n(Cc2cc(Cl)ccc2Cl)c1C(=O)O [Compound A244, 1-(2,5-dichlorobenzyl)-4-methyl-2-(pyridin-4-yl)-1H-imidazole-5-carboxylic acid]
* * *		Cc1nc(-c2ccccn2)n(Cc2cc(Cl)ccc2Cl)c1C(=O)O [Compound A245, 1-(2,5-dichlorobenzyl)-4-methyl-2-(pyridin-2-yl)-1H-imidazole-5-carboxylic acid]
* *		COc1cccc(-c2nc(C)c(C(=O)O)n2Cc2cc(Cl)ccc2Cl)n1 [Compound A246, 1-(2,5-dichlorobenzyl)-2-(6-methoxypyridin-2-yl)-4-methyl-1H-imidazole-5-carboxylic acid]
* *		Cc1nc(Oc2ccccn2)n(Cc2cc(Cl)ccc2Cl)c1C(=O)O [Compound A247, 1-(2,5-dichlorobenzyl)-4-methyl-2-(pyridin-2-yloxy)-1H-imidazole-5-carboxylic acid]
* * *		Cc1nc(Oc2cccnc2)n(Cc2cc(Cl)ccc2Cl)c1C(=O)O [Compound A248, 1-(2,5-dichlorobenzyl)-4-methyl-2-(pyridin-3-yloxy)-1H-imidazole-5-carboxylic acid]
* * *		Cc1ncccc1Oc1nc(C)c(C(=O)O)n1Cc1cc(Cl)ccc1Cl [Compound A252, 1-(2,5-dichlorobenzyl)-4-methyl-2-((2-methylpyridin-3-yl)oxy)-1H-imidazole-5-carboxylic acid]
* * *		Cc1ccncc1Oc1nc(C)c(C(=O)O)n1Cc1cc(Cl)ccc1Cl [Compound A256, 1-(2,5-dichlorobenzyl)-4-methyl-2-((4-methylpyridin-3-yl)oxy)-1H-imidazole-5-carboxylic acid]
* * *		Cc1nc(Oc2cnccc2Cl)n(Cc2cc(Cl)ccc2Cl)c1C(=O)O [Compound A257, 2-((4-chloropyridin-3-yl)oxy)-1-(2,5-dichlorobenzyl)-4-methyl-1H-imidazole-5-carboxylic acid]
* * *		Cc1nc(Oc2cnccc2Br)n(Cc2cc(Cl)ccc2Cl)c1C(=O)O [Compound A258, 2-((4-bromopyridin-3-yl)oxy)-1-(2,5-dichlorobenzyl)-4-methyl-1H-imidazole-5-carboxylic acid]
